In patent US20240307309A1, “ZWITTERIONIC LIPID NANOPARTICLE COMPOSITIONS, AND METHODS OF USE” (CORNELL UNIVERSITY, priority 2020, published 2024):

Test: Accelerated blood clearance (ABC) effect, hEPO serum PK after multiple LNP injections (ELISA)
Assay type: in vivo, C57BL/6J mice
Settings: PCB-LNP containing the lipid; intravenous, 5 μg mRNA; third injection; compared to MC3 formulations
Method: Accelerated blood clearance (ABC) effect has been reported in cases where LNPs were injected multiple times with rapid clearance of LNPs observed in the subsequent injections. […] In this example, PCB-LNP containing ZW-B-CBn from Example 7 were used to study the ABC effect of LNPs. MC3-based PEG-LNP from Example 2 was used as a control.
For in vivo pharmacokinetic (PK) study, male C57BL/6J mice aged 3-4 weeks in groups of three were administered intravenously with mRNA-LNP at a dosage of 5 μg of mRNA. Two different injection cohorts were performed. (FIG. 15a) In cohort 1, only one dose of hEPO-mRNA (human erythropoietin mRNA) was given. In cohort 2, Fluc-mRNA ([…]) was dosed for the first two injections, and hEPO-mRNA for the last injection. (FIG. 15a) Cohort 2 was designed in a way to eliminate anti-hEPO immune response induced from first two injections, and thereby the PK profile of hEPO in the third injection is mainly indicating the ABC effect due to LNP components. To determine the PK profile of hEPO, mice sera were collected at 6-hour, 24-hour post-injection, and analyzed using ELISA (DuoSet, hEPO ELISA kit, R&D).

SMILES | ABC effect (hEPO serum concentration, injection cohort 2 versus cohort 1)
CCCCCCCCCOC(=O)CCCCCCCN(CCCCCCCC(=O)OC(CCCCCCCC)CCCCCCCCC)CC(=O)O (centres unmarked) [ZW-B-CB1, N-(8-(nonyloxy)-8-oxooctyl)-N-(8-(octadecan-9-yloxy)-8-oxooctyl)glycine] | less ABC effect
CCCCCCCCCOC(=O)CCCCCCCN(CCCCCCCC(=O)OC(CCCCCCCC)CCCCCCCCC)CCC(=O)O (centres unmarked) [ZW-B-CB2, 3-((8-(nonyloxy)-8-oxooctyl)(8-(octadecan-9-yloxy)-8-oxooctyl)amino)propanoic acid] | less ABC effect
